Source: patent US9833497B2, “Human originated EGF domain proteins and use of the same” (CHENGDU SOURCEBIO LIMITED-LIABILITY COMPANY, priority 2013, dated 2017)

Key:
Type in all cases: cell-based
E. coli BL21 = assay: MIC against Gram-negative bacteria: E. coli BL21; details: 5×10^5 CFU/mL
In short: (§1)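 MIC = lowest concentration of recombinant protein showing no growth. Test proteins: purified human-derived EGF domain proteins, two-fold dilution series, three wells per concentration; inoculum 5×10^5 CFU/mL in LB; incubation 37° C with shaking at 175 rpm.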

Moraxella catarrhalis = assay: MIC against Gram-negative bacteria: Moraxella catarrhalis; details: 5×10^5 CFU/mL
In short: as §1

Proteus mirabilis = assay: MIC against Gram-negative bacteria: Proteus mirabilis; details: 5×10^5 CFU/mL
In short: as §1

E. coli DH5α = assay: Antibacterial activity: MIC and growth curve against E. coli DH5α in 96-well plate; details: minimal inhibitory concentration against E. coli DH5α; 96-well plate, 5×10^5 CFU/mL, 37° C., judged after 8 h
In short: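 Log-phase bacteria (OD600 ~0.5) resuspended in LB at 5×10^5 CFU/mL, exposed to recombinant protein at 50, 25, 12.5 μg/mL final in triplicate, 37 °C shaking at 175 rpm. OD600 read every 30 min; MIC is lowest concentration showing no growth.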

Aeromonas hydrophila = assay: MIC against Gram-negative bacteria: Aeromonas hydrophila; details: 5×10^5 CFU/mL
In short: as §1

Citrobacter diversus = assay: MIC against Gram-negative bacteria: Citrobacter diversus; details: 5×10^5 CFU/mL
In short: as §1

Pseudomonas aeruginosa = assay: MIC against Gram-negative bacteria: Pseudomonas aeruginosa; details: 5×10^5 CFU/mL
In short: as §1

Serratia marcescens = assay: MIC against Gram-negative bacteria: Serratia marcescens; details: 5×10^5 CFU/mL
In short: as §1

Klebsiella pneumonia = assay: MIC against Gram-negative bacteria: Klebsiella pneumonia; details: 5×10^5 CFU/mL
In short: as §1

Enterobacter cloacae = assay: MIC against Gram-negative bacteria: Enterobacter cloacae; details: 5×10^5 CFU/mL
In short: as §1

Proteus vulgaris = assay: MIC against Gram-negative bacteria: Proteus vulgaris; details: 5×10^5 CFU/mL
In short: as §1

[1] = 10 h cultivation at 37° C., two-fold serial dilution

PRT1157 (DVSEFSLVPCQNGTDCIKISNDVMCICSPIFTDLLCK; listed as Homo sapiens)
MIC E. coli BL21 (E. coli BL21; [1]): 25 mg/L
MIC M. catarrhalis (Moraxella catarrhalis; [1]): 25 mg/L
MIC P. mirabilis (Proteus mirabilis; [1]): 12.5 mg/L
MIC (E. coli DH5α): 12.5 mg/L
MIC A. hydrophila (Aeromonas hydrophila; [1]): 25 mg/L
MIC C. diversus (Citrobacter diversus; [1]): 50 mg/L
MIC P. aeruginosa (Pseudomonas aeruginosa; [1]): 50 mg/L
MIC S. marcescens (Serratia marcescens; [1]): 50 mg/L
MIC K. pneumonia (Klebsiella pneumonia; [1]): 25 mg/L
MIC E. cloacae (Enterobacter cloacae; [1]): 12.5 mg/L
MIC P. vulgaris (Proteus vulgaris; [1]): 25 mg/L

PRT1320 (PSNPCSHPDRGGCSENAECVPGSLGTHHCTCHKGWSGDGRVCV; listed as Homo sapiens)
MIC against E. coli BL21 (E. coli BL21; E. coli BL21, 96-well plate, 37° C., 10 h): 12.5 mg/L
MIC against M. catarrhalis (Moraxella catarrhalis; Moraxella catarrhalis, 96-well plate, 37° C., 10 h): 12.5 mg/L
MIC against P. mirabilis (Proteus mirabilis; Proteus mirabilis, 96-well plate, 37° C., 10 h): 12.5 mg/L
MIC (E. coli DH5α): 25 mg/L
MIC against A. hydrophila (Aeromonas hydrophila; Aeromonas hydrophila, 96-well plate, 37° C., 10 h): 12.5 mg/L
MIC against C. diversus (Citrobacter diversus; Citrobacter diversus, 96-well plate, 37° C., 10 h): 12.5 mg/L
MIC against P. aeruginosa (Pseudomonas aeruginosa; Pseudomonas aeruginosa, 96-well plate, 37° C., 10 h): 25 mg/L
MIC against S. marcescens (Serratia marcescens; Serratia marcescens, 96-well plate, 37° C., 10 h): 12.5 mg/L
MIC against K. pneumonia (Klebsiella pneumonia; Klebsiella pneumonia, 96-well plate, 37° C., 10 h): 12.5 mg/L
MIC against E. cloacae (Enterobacter cloacae; Enterobacter cloacae, 96-well plate, 37° C., 10 h): 25 mg/L
MIC against P. vulgaris (Proteus vulgaris; Proteus vulgaris, 96-well plate, 37° C., 10 h): 50 mg/L

PRT546 (CDCHEAGTAPGVCDPLTGQCYCKENVQGPKCDQCSLGTFSLDAANPKGCTR; listed as Homo sapiens)
MIC against E. coli BL21 (E. coli BL21; 96-well plate, 37° C., 10 h): 50 mg/L
MIC against M. catarrhalis (Moraxella catarrhalis; 96-well plate, 37° C., 10 h): 50 mg/L
MIC against P. mirabilis (Proteus mirabilis; 96-well plate, 37° C., 10 h): 12.5 mg/L
MIC (E. coli DH5α): 12.5 mg/L
MIC against A. hydrophila (Aeromonas hydrophila; 96-well plate, 37° C., 10 h): 50 mg/L
MIC against C. diversus (Citrobacter diversus; 96-well plate, 37° C., 10 h): 12.5 mg/L
MIC against P. aeruginosa (Pseudomonas aeruginosa; 96-well plate, 37° C., 10 h): 12.5 mg/L
MIC against S. marcescens (Serratia marcescens; 96-well plate, 37° C., 10 h): 50 mg/L
MIC against K. pneumonia (Klebsiella pneumonia; 96-well plate, 37° C., 10 h): 50 mg/L
MIC against E. cloacae (Enterobacter cloacae; 96-well plate, 37° C., 10 h): 12.5 mg/L
MIC against P. vulgaris (Proteus vulgaris; 96-well plate, 37° C., 10 h): 25 mg/L

PRT624 (CRCSPLGAASAQCHENGTCVCRPGFEGYKCDRCHDNFFLTADGTHCQQC; listed as Homo sapiens)
MIC E. coli BL21 (E. coli BL21; 96-well plate, 37° C., 10 h): 100 mg/L
MIC M. catarrhalis (Moraxella catarrhalis; 96-well plate, 37° C., 10 h): 12.5 mg/L
MIC P. mirabilis (Proteus mirabilis; 96-well plate, 37° C., 10 h): 25 mg/L
MIC (E. coli DH5α): 25 mg/L
MIC A. hydrophila (Aeromonas hydrophila; 96-well plate, 37° C., 10 h): 12.5 mg/L
MIC C. diversus (Citrobacter diversus; 96-well plate, 37° C., 10 h): 25 mg/L
MIC P. aeruginosa (Pseudomonas aeruginosa; 96-well plate, 37° C., 10 h): 25 mg/L
MIC S. marcescens (Serratia marcescens; 96-well plate, 37° C., 10 h): 25 mg/L
MIC K. pneumonia (Klebsiella pneumonia; 96-well plate, 37° C., 10 h): 50 mg/L
MIC E. cloacae (Enterobacter cloacae; 96-well plate, 37° C., 10 h): 25 mg/L
MIC P. vulgaris (Proteus vulgaris; 96-well plate, 37° C., 10 h): 12.5 mg/L

PRT1131 (RMPGCQHGTCHQPWQCICHSGWAGKFCD; listed as Homo sapiens)
MIC E. coli BL21 (E. coli BL21; [1]): 12.5 mg/L
MIC M. catarrhalis (Moraxella catarrhalis; [1]): 50 mg/L
MIC P. mirabilis (Proteus mirabilis; [1]): 12.5 mg/L
MIC (E. coli DH5α): 50 mg/L
MIC A. hydrophila (Aeromonas hydrophila; [1]): 25 mg/L
MIC C. diversus (Citrobacter diversus; [1]): 12.5 mg/L
MIC P. aeruginosa (Pseudomonas aeruginosa; [1]): 50 mg/L
MIC S. marcescens (Serratia marcescens; [1]): 12.5 mg/L
MIC K. pneumonia (Klebsiella pneumonia; [1]): 12.5 mg/L
MIC E. cloacae (Enterobacter cloacae; [1]): 50 mg/L
MIC P. vulgaris (Proteus vulgaris; [1]): 50 mg/L

PRT268 (SFKCRCDSGFALDSEERNCTDIDE; listed as Homo sapiens)
MIC (μg/mL) E. coli BL21 (E. coli BL21; E. coli BL21, 10 h cultivation at 37° C.): 25 µg/mL
MIC (μg/mL) M. catarrhalis (Moraxella catarrhalis; M. catarrhalis, 10 h cultivation at 37° C.): 25 µg/mL
MIC (μg/mL) P. mirabilis (Proteus mirabilis; P. mirabilis, 10 h cultivation at 37° C.): 50 µg/mL
MIC (E. coli DH5α): 12.5 mg/L
MIC (μg/mL) A. hydrophila (Aeromonas hydrophila; A. hydrophila, 10 h cultivation at 37° C.): 25 µg/mL
MIC (μg/mL) C. diversus (Citrobacter diversus; C. diversus, 10 h cultivation at 37° C.): 12.5 µg/mL
MIC (μg/mL) P. aeruginosa (Pseudomonas aeruginosa; P. aeruginosa, 10 h cultivation at 37° C.): 12.5 µg/mL
MIC (μg/mL) S. marcescens (Serratia marcescens; S. marcescens, 10 h cultivation at 37° C.): 12.5 µg/mL
MIC (μg/mL) K. pneumonia (Klebsiella pneumonia; K. pneumonia, 10 h cultivation at 37° C.): 25 µg/mL
MIC (μg/mL) E. cloacae (Enterobacter cloacae; E. cloacae, 10 h cultivation at 37° C.): 50 µg/mL
MIC (μg/mL) P. vulgaris (Proteus vulgaris; P. vulgaris, 10 h cultivation at 37° C.): 12.5 µg/mL
